Source: patent publication US20250215029A1 (Recludix Pharma, Inc., priority 2022, published 2025)

Target: T1, pY641-STAT6 in PBMC (Homo sapiens, UniProt P42226)
T1 construct: Cryopreserved Peripheral Blood Mononuclear Cells (PBMC) are from AllCells; host or cells: cryopreserved PBMC
T1 sequence (P42226 1-847): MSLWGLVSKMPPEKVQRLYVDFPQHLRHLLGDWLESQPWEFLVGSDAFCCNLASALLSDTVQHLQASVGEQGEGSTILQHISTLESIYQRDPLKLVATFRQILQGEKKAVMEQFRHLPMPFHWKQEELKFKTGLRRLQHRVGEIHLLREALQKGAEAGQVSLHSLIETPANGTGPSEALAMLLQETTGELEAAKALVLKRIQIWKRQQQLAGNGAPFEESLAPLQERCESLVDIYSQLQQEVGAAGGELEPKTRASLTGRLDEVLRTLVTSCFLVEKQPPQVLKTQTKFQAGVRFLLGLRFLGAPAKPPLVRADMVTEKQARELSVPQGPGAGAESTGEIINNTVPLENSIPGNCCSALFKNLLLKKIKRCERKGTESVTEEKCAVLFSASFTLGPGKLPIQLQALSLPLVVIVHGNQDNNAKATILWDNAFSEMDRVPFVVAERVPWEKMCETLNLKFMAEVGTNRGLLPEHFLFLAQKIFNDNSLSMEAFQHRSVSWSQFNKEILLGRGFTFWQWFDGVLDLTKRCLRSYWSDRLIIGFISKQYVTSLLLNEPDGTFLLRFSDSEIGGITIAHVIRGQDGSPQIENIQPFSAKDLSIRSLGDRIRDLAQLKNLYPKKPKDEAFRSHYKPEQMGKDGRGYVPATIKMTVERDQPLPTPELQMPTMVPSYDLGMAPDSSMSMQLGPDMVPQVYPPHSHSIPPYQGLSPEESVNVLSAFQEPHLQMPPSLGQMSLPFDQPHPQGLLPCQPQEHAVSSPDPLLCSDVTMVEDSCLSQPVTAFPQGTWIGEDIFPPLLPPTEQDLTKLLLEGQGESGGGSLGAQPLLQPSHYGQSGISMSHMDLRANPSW
Experiment: MSD-pSTAT-PBMC Assay (pSTAT6, IL-4 stimulated)
Assay type: cell-based
Details: STAT6, PBMC, compound 3 hrs, then 1 ng/mL IL-4 for 10 min; Table 115
From the text: Cryopreserved Peripheral Blood Mononuclear Cells (PBMC) are from AllCells. Recombinant Human IL-4 and IL-6 are from Peprotech. Mouse monoclonal anti-STAT3 antibody, rabbit monoclonal anti-pY705-STAT3 antibody, rabbit monoclonal Anti-pY641-STAT6 antibody, and lysis buffer are from Cell Signaling Technology (CST). Mouse monoclonal anti-STAT6 antibody is from BioLegend. Assay plates, blocker, and anti-rabbit secondary antibody are from Meso Scale Discovery (MSD).
Cyropreserved PBMCs were thawed out and allowed to recover overnight in IMDM+10% heat-inactivated FBS prior to plating 50,000 (STAT3) or 25,000 (STAT6) cells per well in 96-well U-bottom tissue culture plates. Cells were treated with compound for 3 hrs, then stimulated with 10 ng/mL IL-6 (STAT3) or 1 ng/mL IL-4 (STAT6) for 10 min. Cells were then spun down and washed with ice-cold PBS prior to lysing the cell pellet with 1× lysis buffer (CST) with 1× HALT protease and phosphatase inhibitor cocktail (Thermo). Lysates were transferred to and incubated overnight at 4° C. with shaking in QuickPlex 96-well high bind assay plates (MSD) pre-coated overnight with 30 μL per well of 0.6 μg/mL mouse monoclonal anti-STAT3 antibody (STAT3) or 2 μg/mL mouse monoclonal anti-STAT6 antibody (STAT6) in 1× PBS, and pre-blocked for 1 hour with 3% Blocker-A (MSD). Captured protein in the assay plates were then washed and probed with 25 μL per well of […] rabbit monoclonal anti-pY705-STAT3 antibody (STAT3) or 0.18 μg/ml rabbit monoclonal Anti-pY641-STAT6 antibody (STAT6) in 1% Blocker-A for 1 hour at room temperature with shaking, then washed and probed with 25 ul per well of 1 ug/ml Sulfo-TAG Labeled Goat Anti-Rabbit Antibody (MSD) in 1% Blocker-A for 1 hour at room temperature with shaking. Assay plates were then washed and 150 μL of 1× Read Buffer-T (MSD) was added to each well prior to reading on an SQ120 MSD Plate Reader. Assay signal from each sample was subtracted by the signal from unstimulated control wells and normalized to DMSO control wells. IC50 values were calculated using Graph Pad Prism Dose-Response Nonlinear Regression with variable slope. For both pSTAT3 and pSTAT6 A=≤100 nM; B 100-1000 nM; C=>1000-3000 nM; D=>3 μM; and NT=Not Tested.

SMILES	IC50
CCCOC(=O)[C@H](C)NP(=O)(Oc1ccccc1)C(F)c1ccc2sc(C(=O)N[C@H]3CCCC[C@H]4CCC[C@@H](C(=O)N5CC(C#N)[C@H](c6ccccc6)C5)N4C3=O)cc2c1 (relative stereo) [Compound 269, propyl (((2-(((4S,7S,11aS)-4-((rel-trans)-3-cyano-4-phenylpyrrolidine-1-carbonyl)-6-oxodecahydro-2H-pyrido[1,2-a]azocin-7-yl)carbamoyl)benzo [b]thiophen-5-yl)fluoromethyl) (phenoxy)phosphoryl)-L-alaninate]	< 100 nM
CCCOC(=O)[C@H](C)NP(=O)(Oc1ccccc1)C(F)c1ccc2sc(C(=O)N[C@H]3CCCCC[C@H]4[C@H](O)C[C@@H](C(=O)N5CC(C#N)[C@H](c6ccccc6)C5)N4C3=O)cc2c1 (relative stereo) [Compound 270, propyl (((2-(((1R,3S,6S,11aS)-3-((rel-trans)-3-cyano-4-phenylpyrrolidine-1-carbonyl)-1-hydroxy-5-oxodecahydro-1H-pyrrolo[1,2-a]azonin-6-yl)carbamoyl)benzo [b]thiophen-5-yl)fluoromethyl) (phenoxy)phosphoryl)-L-alaninate]	100 to 1000 nM
CCCOC(=O)[C@H](C)NP(=O)(Oc1ccccc1)C(F)c1ccc2sc(C(=O)N[C@H]3CCCC[C@H]4CC[C@@H](C(=O)N5C[C@@H](C#N)[C@H](c6cccn(C)c6=O)C5)N4C3=O)cc2c1 (relative stereo) [Compound 299, propyl (((2-(((3S,6S,10aS)-3-(rel-(trans)-3-cyano-4-(1-methyl-2-oxo-1,2-dihydropyridin-3-yl)pyrrolidine-1-carbonyl)-5-oxodecahydropyrrolo [1,2-a]azocin-6-yl)carbamoyl)benzo [b]thiophen-5-yl)fluoromethyl) (phenoxy)phosphoryl)-L-alaninate]	100 to 1000 nM
CCCOC(=O)[C@H](C)NP(=O)(Oc1ccccc1)C(F)c1ccc2sc(C(=O)N[C@H]3CCCC[C@H]4CC[C@@H](C(=O)N5C[C@H](c6cccnc6OC)[C@@H](C#N)C5)N4C3=O)cc2c1 (relative stereo) [Compound 322, propyl (((2-(((3S,6S,10aS)-3-((rel-trans)-3-cyano-4-(2-methoxypyridin-3-yl)pyrrolidine-1-carbonyl)-5-oxodecahydropyrrolo [1,2-a]azocin-6-yl)carbamoyl)benzo [b]thiophen-5-yl)fluoromethyl) (phenoxy)phosphoryl)-L-alaninate]	< 100 nM
CCCOC(=O)[C@H](C)NP(=O)(Oc1ccccc1)[C@@H](F)c1ccc2sc(C(=O)N[C@H]3CCCC[C@H]4CC[C@@H](C(=O)N5C[C@H](c6cccc(OC(F)F)c6)C(C#N)C56CC6)N4C3=O)cc2c1 (relative stereo) [Compound 338, propyl (((R)-(2-(((3S,6S,10aS)-3-((rel-trans)-7-cyano-6-(3-(difluoromethoxy)phenyl)-4-azaspiro[2.4]heptane-4-carbonyl)-5-oxodecahydropyrrolo [1,2-a]azocin-6-yl)carbamoyl)benzo [b]thiophen-5-yl)fluoromethyl) (phenoxy)phosphoryl)-L-alaninate]	< 100 nM
CCCOC(=O)[C@H](C)NP(=O)(Oc1ccccc1)C(F)c1ccc2ccc(C(=O)N[C@H]3CCCC[C@H]4CC[C@@H](C(=O)N5C[C@@H](C#N)[C@H](c6ccccc6)C5)N4C3=O)cc2c1 (single isomer, unassigned) [Compound 316]	< 100 nM
CCCOC(=O)[C@H](C)NP(=O)(Oc1ccccc1)C(F)c1ccc2sc(C(=O)N[C@H]3CCCC[C@H]4CC[C@@H](C(=O)N5C[C@@H](C#N)[C@H](c6ccn(C)c(=O)c6)C5)N4C3=O)cc2c1 (single isomer, unassigned) [Compound 318]	> 3000 nM
CCCOC(=O)[C@H](C)NP(=O)(Oc1ccccc1)C(F)c1ccc2sc(C(=O)N[C@H]3CCCC[C@H]4CC[C@@H](C(=O)N5C[C@@H](C#N)[C@H](c6ccn(C)c(=O)c6)C5)N4C3=O)cc2c1 (single isomer, unassigned) [Compound 319]	1000 to 3000 nM
CCCOC(=O)[C@H](C)NP(=O)(Oc1ccccc1)[C@H](F)c1ccc2sc(C(=O)N[C@H]3CCCC[C@H]4CC[C@@H](C(=O)N5C[C@@H](C#N)[C@H](c6ccccc6)C5)N4C3=O)cc2c1 (single isomer, unassigned) [Compound 321]	< 100 nM
CCCOC(=O)[C@H](C)NP(=O)(Oc1ccccc1)[C@@H](F)c1ccc2sc(C(=O)N[C@H]3CCCC[C@H]4CC[C@@H](C(=O)N5C[C@H](c6cccc(OC)c6)[C@@H](C#N)C56CC6)N4C3=O)cc2c1 (single isomer, unassigned) [Compound 335]	< 100 nM
CCCOC(=O)[C@H](C)NP(=O)(Oc1ccccc1)[C@@H](F)c1ccc2sc(C(=O)N[C@H]3CCCC[C@H]4CC[C@@H](C(=O)N5C[C@H](c6cccc(C#N)c6)[C@@H](C#N)C56CC6)N4C3=O)cc2c1 (single isomer, unassigned) [Compound 339]	< 100 nM
CCCOC(=O)[C@H](C)NP(=O)(Oc1ccccc1)[C@@H](F)c1ccc2sc(C(=O)N[C@H]3CCC[C@H]4CC[C@@H](C(=O)N5C[C@@H](c6cccc(C)c6)[C@H](C#N)C56CC6)N4C3=O)cc2c1 (single isomer, unassigned) [Compound 341]	< 100 nM
CCCOC(=O)[C@H](C)NP(=O)(Oc1ccccc1)[C@H](F)c1ccc2sc(C(=O)N[C@H]3CCC[C@H]4CC[C@@H](C(=O)N5C[C@@H](c6cccnc6)[C@H](C#N)C56CC6)N4C3=O)cc2c1 (single isomer, unassigned) [Compound 355]	< 100 nM
CCCOC(=O)[C@H](C)NP(=O)(Oc1ccccc1)[C@@H](F)c1ccc2sc(C(=O)N[C@H]3CCC[C@H]4CC[C@@H](C(=O)N5C[C@H](c6cccnc6)[C@@H](C#N)C56CC6)N4C3=O)cc2c1 (single isomer, unassigned) [Compound 362]	< 100 nM

Same assay, conditions: read-out: STAT6; PBMC, compound 3 hrs, then 1 ng/mL IL-4 for 10 min; Table 115

SMILES	IC50
CCCOC(=O)[C@H](C)NP(=O)(Oc1ccccc1)C(F)c1ccc2sc(C(=O)N[C@H]3CCCC[C@H]4CC[C@@H](C(=O)N5C[C@@H](C#N)[C@H](c6ccccc6)C5)N4C3=O)cc2c1 (single isomer, unassigned) [Compound 317]	< 100 nM
CCCOC(=O)[C@H](C)NP(=O)(Oc1ccccc1)[C@@H](F)c1ccc2sc(C(=O)N[C@H]3CCCC[C@H]4CC[C@@H](C(=O)N5C[C@H](c6cccc(OC)c6)[C@@H](C#N)C56CC6)N4C3=O)cc2c1 (single isomer, unassigned) [Compound 336]	< 100 nM
CCCOC(=O)[C@H](C)NP(=O)(Oc1ccccc1)[C@@H](F)c1ccc2sc(C(=O)N[C@H]3CCCC[C@H]4CC[C@@H](C(=O)N5C[C@H](c6cccc(C#N)c6)[C@@H](C#N)C56CC6)N4C3=O)cc2c1 (single isomer, unassigned) [Compound 340]	< 100 nM
CCCOC(=O)[C@H](C)NP(=O)(Oc1ccccc1)[C@@H](F)c1ccc2sc(C(=O)N[C@H]3CCC[C@H]4CC[C@@H](C(=O)N5C[C@@H](c6cccc(C)c6)[C@H](C#N)C56CC6)N4C3=O)cc2c1 (single isomer, unassigned) [Compound 342]	< 100 nM
CCCOC(=O)[C@H](C)NP(=O)(Oc1ccccc1)[C@@H](F)c1ccc2sc(C(=O)N[C@H]3CCC[C@H]4CC[C@@H](C(=O)N5C[C@H](c6cccnc6)[C@@H](C#N)C56CC6)N4C3=O)cc2c1 (single isomer, unassigned) [Compound 363]	< 100 nM
